Experimental data from ChEMBL document CHEMBL3044870, “Effect of clomazone on various market classes of dry beans” (Crop Prot, 2007).

Assays:
Assay type in all cases: organism-based
Settings in all cases: in vivo
Phaseolus vulgaris [1] = test: Phytotoxicity against Phaseolus vulgaris (pink beans) assessed as crop injury
Phaseolus vulgaris [2] = test: Phytotoxicity against Phaseolus vulgaris (kidney bean) assessed as crop injury
Phaseolus vulgaris [3] = test: Phytotoxicity against Phaseolus vulgaris (white beans) assessed as reduction in plant height applied pre-emergence relative to control; parameters: scale not given: the % may be the effect or the level left
Phaseolus vulgaris [4] = test: Phytotoxicity against Phaseolus vulgaris (black beans) assessed as reduction in plant height applied pre-emergence relative to control; parameters: scale not given: the % may be the effect or the level left
Phaseolus vulgaris [5] = test: Phytotoxicity against Phaseolus vulgaris (white beans) assessed as crop injury
Phaseolus vulgaris [6] = test: Phytotoxicity against yellow eye bean assessed as reduction in shoot dry weight applied pre-emergence relative to control; parameters: scale not given: the % may be the effect or the level left
Phaseolus vulgaris [7] = test: Phytotoxicity against Phaseolus vulgaris (white beans) assessed as reduction in shoot dry weight applied pre-emergence relative to control; parameters: scale not given: the % may be the effect or the level left
Phaseolus vulgaris [8] = test: Phytotoxicity against Phaseolus vulgaris (pinto beans)s assessed as reduction in shoot dry weight applied pre-emergence relative to control; parameters: scale not given: the % may be the effect or the level left
Phaseolus vulgaris [9] = test: Phytotoxicity against Phaseolus vulgaris (otebo beans) assessed as reduction in shoot dry weight applied pre-emergence relative to control; parameters: scale not given: the % may be the effect or the level left
Phaseolus vulgaris [10] = test: Phytotoxicity against Phaseolus vulgaris (black beans) assessed as reduction in shoot dry weight applied pre-emergence relative to control; parameters: scale not given: the % may be the effect or the level left
Phaseolus vulgaris [11] = test: Phytotoxicity against yellow eye bean assessed as reduction in plant height applied pre-emergence relative to control; parameters: scale not given: the % may be the effect or the level left
Phaseolus vulgaris [12] = test: Phytotoxicity against Phaseolus vulgaris (pinto beans) assessed as reduction in plant height applied pre-emergence relative to control; parameters: scale not given: the % may be the effect or the level left
Phaseolus vulgaris [13] = test: Phytotoxicity against Phaseolus vulgaris (otebo beans) assessed as reduction in plant height applied pre-emergence relative to control; parameters: scale not given: the % may be the effect or the level left
Phaseolus vulgaris [14] = test: Phytotoxicity against Phaseolus vulgaris (cranberry beans) assessed as crop injury
Phaseolus vulgaris [15] = test: Phytotoxicity against Phaseolus vulgaris (black beans) assessed as reduction in shoot dry weight relative to control; parameters: scale not given: the % may be the effect or the level left

Row | SMILES | Activity (Phaseolus vulgaris [2]) [%] | Activity (Phaseolus vulgaris [3]) [%] | Activity (Phaseolus vulgaris [4]) [%] | Activity (Phaseolus vulgaris [5]) [%] | Activity (Phaseolus vulgaris [14]) [%] | other results
1 | CS(=O)(=O)NC(=O)c1cc(Oc2ccc(C(F)(F)F)cc2Cl)ccc1[N+](=O)[O-] [FOMESAFEN] | 1 |  |  |  |  | Activity (Phaseolus vulgaris [1]): 5%
2 | CCc1cnc(C2=NC(C)(C(C)C)C(=O)N2)c(C(=O)O)c1 (stereo not given) [IMAZETHAPYR] | 2 | 40 | 40 | 11 |  | 
3 | CON(C)C(=O)Nc1ccc(Cl)c(Cl)c1 [LINURON] |  | 24 | 24 | 49 | 4 | Activity (Phaseolus vulgaris [6]): 26%; Activity (Phaseolus vulgaris [7]): 26%; Activity (Phaseolus vulgaris [8]): 26%; Activity (Phaseolus vulgaris [9]): 26%; Activity (Phaseolus vulgaris [10]): 26%; Activity (Phaseolus vulgaris [11]): 24%; Activity (Phaseolus vulgaris [12]): 24%; Activity (Phaseolus vulgaris [13]): 24%
4 | CCc1cccc(CC)c1N(COC)C(=O)CCl [ALACHLOR] | 0.5 |  |  | 6 |  | 
5 | CCc1cccc(C)c1N(C(=O)CCl)[C@@H](C)COC [S-METOLACHLOR] |  |  |  |  |  | Activity (Phaseolus vulgaris [15]): 16%
6 | C#CCN1C(=O)COc2cc(F)c(N3C(=O)C4=C(CCCC4)C3=O)cc21 [FLUMIOXAZIN] |  | 28 | 23 | 17 | 4 | 
